# Calls of active or inactive are those of the source.
# How the values were obtained:
# [1] = HEp-2 cell cytotoxicity, dose response, cytotoxicity control for RSV inhibitor project, HTS (AID 2410); type: functional; conditions: human respiratory syncytial virus
# [2] = inhibitors of firefly luciferase expression or activity, dose response, H4 neuroglioma cells, luminescence (AID 1990); type: functional, cell-based
# [3] = Luminescence Cell-Based Dose Response HTS to Identify Inhibitors of 5'UTR Stem-Loop Driven Prion Protein mRNA Translation in H4 Neuroglioblastoma Cells. [Related pubchem assays: 1827 (Project Summary), 1813 (Primary HTS)]; type: functional
# [4] = inhibitors of SNCA 5'UTR-driven reporter translation, confirmation, H4 neuroglioma cells, luminescence (AID 1988); type: functional, cell-based
# [5] = biological target: FAD-linked sulfhydryl oxidase ALR (Homo sapiens, UniProt P55789); test: inhibitors of human ALR sulfhydryl oxidase, dose response, biochemical, H2O2 detection, luminescence, cherry-pick (AID 493248)
# Sequence of FAD-linked sulfhydryl oxidase ALR (P55789 whole entry): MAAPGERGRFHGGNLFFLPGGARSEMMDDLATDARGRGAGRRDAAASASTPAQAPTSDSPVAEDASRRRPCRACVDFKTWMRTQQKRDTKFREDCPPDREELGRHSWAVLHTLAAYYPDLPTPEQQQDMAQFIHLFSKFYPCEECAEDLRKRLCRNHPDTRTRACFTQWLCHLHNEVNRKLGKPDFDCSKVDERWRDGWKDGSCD
# [6] = biological target: T1, Polyadenylate-binding protein 1 (Homo sapiens, UniProt P11940); test: PABP1 MLLE–PAM2 interaction inhibitors, dose response, miRNA deadenylation inhibitor project, biochemical, fluorescence polarization, Cy5-PAM2 peptide, secondary (AID 602260); type: functional; conditions: read-out: IC50_Mean
# T1 sequence (P11940 whole entry): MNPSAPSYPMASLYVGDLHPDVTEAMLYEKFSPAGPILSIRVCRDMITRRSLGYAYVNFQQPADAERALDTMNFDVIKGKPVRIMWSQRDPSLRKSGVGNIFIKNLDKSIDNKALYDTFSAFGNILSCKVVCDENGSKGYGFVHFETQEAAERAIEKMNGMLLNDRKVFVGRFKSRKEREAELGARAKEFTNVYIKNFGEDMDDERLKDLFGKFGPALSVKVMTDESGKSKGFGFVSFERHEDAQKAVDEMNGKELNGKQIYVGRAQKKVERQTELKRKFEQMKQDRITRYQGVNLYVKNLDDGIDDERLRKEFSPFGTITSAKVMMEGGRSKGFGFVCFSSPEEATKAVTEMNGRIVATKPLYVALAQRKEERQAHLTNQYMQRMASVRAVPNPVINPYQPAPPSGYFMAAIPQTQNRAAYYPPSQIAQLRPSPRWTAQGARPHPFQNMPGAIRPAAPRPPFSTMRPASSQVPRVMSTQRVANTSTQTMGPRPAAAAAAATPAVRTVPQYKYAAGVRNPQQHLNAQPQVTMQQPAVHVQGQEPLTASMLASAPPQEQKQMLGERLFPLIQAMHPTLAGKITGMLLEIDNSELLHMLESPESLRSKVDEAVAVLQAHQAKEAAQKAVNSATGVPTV
# [7] = biological target: T1, Polyadenylate-binding protein 1; test: PABP1 MLLE–PAM2 binding inhibitor potency, dose response, biochemical, fluorescence polarization, FITC-PAM2 peptide (AID 602259); type: functional; conditions: read-out: IC50_Mean
# [8] = cytotoxicity in HEK-293T cells, dose response, cytotoxicity control for TCR NF-kB inhibitor project, luminescence, T-cell screen hits (AID 489026); type: functional, cell-based;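 also: cells exposed to compound about 14 hours before the viability readout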
# [9] = biological target: Large T antigen (Simian virus 40, UniProt P03070); type: functional, Betapolyomavirus macacae;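 also: Confirmatory-stage PubChem screen for compounds that inhibit SV40 T antigen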
# Sequence of Large T antigen (P03070 whole entry): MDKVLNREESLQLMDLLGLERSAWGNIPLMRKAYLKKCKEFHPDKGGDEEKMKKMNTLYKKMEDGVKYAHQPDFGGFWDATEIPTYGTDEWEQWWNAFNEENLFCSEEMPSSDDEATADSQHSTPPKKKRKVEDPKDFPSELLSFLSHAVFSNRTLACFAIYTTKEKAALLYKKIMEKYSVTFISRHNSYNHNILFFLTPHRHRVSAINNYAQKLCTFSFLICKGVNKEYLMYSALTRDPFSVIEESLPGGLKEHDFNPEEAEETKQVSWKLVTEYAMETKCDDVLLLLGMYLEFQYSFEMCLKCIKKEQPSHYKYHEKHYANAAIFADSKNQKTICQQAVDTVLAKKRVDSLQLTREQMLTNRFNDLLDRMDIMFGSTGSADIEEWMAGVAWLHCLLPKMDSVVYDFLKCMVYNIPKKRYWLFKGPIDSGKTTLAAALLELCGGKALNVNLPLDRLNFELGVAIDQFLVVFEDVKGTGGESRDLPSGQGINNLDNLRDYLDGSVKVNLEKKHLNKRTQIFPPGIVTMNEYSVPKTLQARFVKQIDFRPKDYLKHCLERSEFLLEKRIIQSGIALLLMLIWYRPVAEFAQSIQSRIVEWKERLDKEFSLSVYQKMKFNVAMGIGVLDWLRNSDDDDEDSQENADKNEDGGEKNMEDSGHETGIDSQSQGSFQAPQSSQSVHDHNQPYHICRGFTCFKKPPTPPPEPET
# [10] = biological target: T2, Rac GTPase-activating protein 1 (Homo sapiens, UniProt Q9H0H5); test: MgcRacGAP GTPase-activating activity inhibitors, confirmation, biochemical, ADP Hunter fluorescence, primary and confirmatory (AID 624330); type: functional
# T2 sequence (Q9H0H5 whole entry): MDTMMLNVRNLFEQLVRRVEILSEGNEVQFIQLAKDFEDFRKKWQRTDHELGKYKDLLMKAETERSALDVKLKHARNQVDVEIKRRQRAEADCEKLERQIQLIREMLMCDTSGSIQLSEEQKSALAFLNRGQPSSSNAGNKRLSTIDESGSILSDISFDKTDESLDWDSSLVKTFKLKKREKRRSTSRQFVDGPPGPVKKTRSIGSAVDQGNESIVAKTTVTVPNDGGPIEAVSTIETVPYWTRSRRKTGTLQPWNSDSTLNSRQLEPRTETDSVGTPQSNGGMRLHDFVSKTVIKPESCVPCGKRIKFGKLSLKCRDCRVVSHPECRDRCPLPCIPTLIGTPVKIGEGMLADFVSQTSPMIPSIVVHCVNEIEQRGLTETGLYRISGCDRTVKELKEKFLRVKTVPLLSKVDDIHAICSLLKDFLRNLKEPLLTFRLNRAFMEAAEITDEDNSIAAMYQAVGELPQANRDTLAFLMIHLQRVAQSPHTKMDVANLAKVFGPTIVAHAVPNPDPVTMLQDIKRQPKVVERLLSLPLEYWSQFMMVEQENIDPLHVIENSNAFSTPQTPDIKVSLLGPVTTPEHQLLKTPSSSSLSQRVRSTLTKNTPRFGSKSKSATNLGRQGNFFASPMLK
# [11] = biological target: T3, Cytochrome P450 1A2 (Homo sapiens, UniProt P05177);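 also: PubChem cytochrome P450 panel assay, CYP1A2 panel member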
# T3 sequence (P05177 whole entry): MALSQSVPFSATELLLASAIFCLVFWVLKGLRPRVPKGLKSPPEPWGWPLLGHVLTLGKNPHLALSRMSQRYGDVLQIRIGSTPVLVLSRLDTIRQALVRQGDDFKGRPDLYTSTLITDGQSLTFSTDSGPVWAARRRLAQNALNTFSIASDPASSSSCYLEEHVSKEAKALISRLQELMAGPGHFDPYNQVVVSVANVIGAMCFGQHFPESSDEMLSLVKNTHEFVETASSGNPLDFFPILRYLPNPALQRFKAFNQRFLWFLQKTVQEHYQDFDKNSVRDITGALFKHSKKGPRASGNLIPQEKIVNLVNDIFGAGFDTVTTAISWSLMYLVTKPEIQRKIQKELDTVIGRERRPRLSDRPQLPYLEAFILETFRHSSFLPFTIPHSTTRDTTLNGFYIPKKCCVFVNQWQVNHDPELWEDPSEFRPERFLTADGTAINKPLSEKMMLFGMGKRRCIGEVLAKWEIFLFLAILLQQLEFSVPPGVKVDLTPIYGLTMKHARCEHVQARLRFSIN
# [12] = biological target: Cytochrome P450 3A4 (Homo sapiens, UniProt P08684);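 also: CYP3A4 tested as one member of a cytochrome P450 panel screen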
# Sequence of Cytochrome P450 3A4 (P08684 whole entry): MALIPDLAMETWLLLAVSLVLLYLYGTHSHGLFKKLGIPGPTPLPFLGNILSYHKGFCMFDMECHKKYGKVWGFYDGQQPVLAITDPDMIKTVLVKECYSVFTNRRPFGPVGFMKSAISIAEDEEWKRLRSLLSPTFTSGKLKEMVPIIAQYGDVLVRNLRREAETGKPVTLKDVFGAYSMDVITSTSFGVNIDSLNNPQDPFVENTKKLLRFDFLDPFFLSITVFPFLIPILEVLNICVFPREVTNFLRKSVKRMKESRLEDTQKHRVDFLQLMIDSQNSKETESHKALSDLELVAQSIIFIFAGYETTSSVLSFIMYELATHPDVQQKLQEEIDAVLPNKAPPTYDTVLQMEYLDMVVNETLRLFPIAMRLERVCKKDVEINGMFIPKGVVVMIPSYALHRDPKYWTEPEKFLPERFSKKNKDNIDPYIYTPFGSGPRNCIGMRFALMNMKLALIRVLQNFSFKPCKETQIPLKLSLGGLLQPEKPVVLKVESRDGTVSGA
# [13] = tested on: INS1; test: beta cell apoptosis inhibitors, cytokine rescue, dose response, luminescence, retest (AID 449756); type: functional, cell-based; conditions: Rattus norvegicus;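 also: cell death triggered by IL-1 beta plus TNF-alpha plus IFN-gamma mixture; protective hits raise ATP signal compared with cytokine alone wells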
# [14] = cells; type: functional, cell-based
# [15] = cells; type: functional, cell-based; remark: listed apart in the source
# [16] = tested on: P388/ADR; test: cells; type: functional; conditions: Mus musculus
# [17] = tested on: SN12K1; test: cells; type: functional; conditions: Homo sapiens
# [18] = biological target: T4, Heat shock factor protein 1 (Mus musculus, UniProt P38532); test: inhibition of MG132-induced HSE-luciferase signal, confirmation, cell-based, NIH3T3, luminescence, dose retest (AID 2382); type: functional;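 also: NIH3T3 fibroblasts with HSF1-driven luciferase reporter stressed by proteasome inhibitor MG132; luminescence from HSF1-driven luciferase expression after 8 hours of MG132 stress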
# T4 sequence (P38532 whole entry): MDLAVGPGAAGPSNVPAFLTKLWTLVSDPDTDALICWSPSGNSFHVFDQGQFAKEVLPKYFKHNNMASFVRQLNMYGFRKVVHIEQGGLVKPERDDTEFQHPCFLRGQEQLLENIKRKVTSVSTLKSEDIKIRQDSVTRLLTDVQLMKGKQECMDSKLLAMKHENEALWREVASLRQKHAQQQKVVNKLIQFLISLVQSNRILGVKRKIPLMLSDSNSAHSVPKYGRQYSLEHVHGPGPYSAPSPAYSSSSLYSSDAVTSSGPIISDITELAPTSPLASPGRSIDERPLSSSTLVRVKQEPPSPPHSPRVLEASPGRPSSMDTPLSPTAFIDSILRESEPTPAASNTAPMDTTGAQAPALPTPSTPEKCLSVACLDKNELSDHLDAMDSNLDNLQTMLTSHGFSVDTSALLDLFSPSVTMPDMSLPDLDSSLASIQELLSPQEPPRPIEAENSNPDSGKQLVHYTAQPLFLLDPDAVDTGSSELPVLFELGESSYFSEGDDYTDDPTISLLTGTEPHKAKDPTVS
# [19] = biological target: T5, Microphthalmia-associated transcription factor (Homo sapiens, UniProt O75030); test: TRPM1 promoter luciferase signal decrease, dose response, MITF inhibitor project, cell-based, SK-MEL-5, cherry-picked, set 3 (AID 493073); type: functional
# T5 sequence (O75030 whole entry): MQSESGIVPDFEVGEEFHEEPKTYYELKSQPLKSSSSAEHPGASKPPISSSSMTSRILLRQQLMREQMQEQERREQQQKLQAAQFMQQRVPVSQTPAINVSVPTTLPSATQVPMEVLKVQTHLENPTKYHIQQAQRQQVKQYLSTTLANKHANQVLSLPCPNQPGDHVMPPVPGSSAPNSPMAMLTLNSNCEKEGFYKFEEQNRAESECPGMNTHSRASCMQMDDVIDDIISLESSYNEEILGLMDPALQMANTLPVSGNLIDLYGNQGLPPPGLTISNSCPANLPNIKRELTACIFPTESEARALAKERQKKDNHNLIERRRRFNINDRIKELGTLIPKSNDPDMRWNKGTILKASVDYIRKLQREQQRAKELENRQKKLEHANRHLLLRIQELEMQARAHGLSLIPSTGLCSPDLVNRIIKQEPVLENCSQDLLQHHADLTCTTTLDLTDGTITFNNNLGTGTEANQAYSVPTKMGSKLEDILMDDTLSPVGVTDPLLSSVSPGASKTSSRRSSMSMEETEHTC
# [20] = NIH-3T3 fibroblast cytotoxicity, dose response, cytotoxicity control, cell-based, fluorescence, Alamar Blue, secondary assay (AID 2327); type: functional;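 also: NIH-3T3 mouse fibroblasts cultured with fluconazole at 8 µg/mL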
# [21] = C. albicans growth with fluconazole, confirmation, fluorescence, retest (AID 2467); type: functional, cell-based
# [22] = tested on: H9c2; test: cells; type: functional, cell-based; conditions: Rattus norvegicus, H9c2, Myocardium;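 also: confirmatory concentration-response retest of ultra-high-throughput screening hits for modulation of myocardial damage; cell death induced by hydrogen peroxide oxidative stress; compound pretreatment for 60 min then peroxide exposure for 2 h; potency is for protecting the cells against peroxide damage rather than for killing them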
# [23] = inhibitors of HIV Env-driven cell fusion, dose response, cherry-pick (AID 652057); type: functional, cell-based
# [24] = inhibitors of clade B AD8 Env fusion, dose response, cell-based, cherry-pick (AID 652062); type: functional;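 also: luciferase signal from cell-cell fusion driven by HIV-1 clade B AD8 Env; potency is for inhibitors of fusion seen as a drop in luminescence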
smiles,measurement,setting,value
CCO[C@H]1OC(C(=O)Nc2ccccc2)=C[C@@H](c2ccc(Br)cc2)[C@@H]1CCCO,CC50,[1],17.6 µM (active)
same,EC50,[2],> 120 µM (not active)
same,EC50,[3],> 120 µM (not active)
same,EC50,[4],> 120 µM (not active)
CN(C)Cc1ccccc1Sc1ccc(O)cc1O,AC50,[5],1.78 µM (active)
COc1ccc(-n2ccnc(SCC(=O)NC3CCCC3)c2=O)cc1,IC50,[6],> 66 µM (inactive)
same,IC50,[7],> 66 µM (inactive)
Cc1noc(C)c1COc1ccc(C(=O)NNC(=O)c2ccccc2F)cc1,IC50,[8],> 80 µM (inactive)
CSc1nsc(SCC(=O)NCc2ccccc2)n1,IC50,[6],> 66 µM (inactive)
same,IC50,[7],> 66 µM (inactive)
O=C1CCC(C(=O)N2CCCC(Nc3ccc(F)cc3)C2)=NN1 (stereo not given),AC50,[5],24.8 µM (active)
O=C1C=C(Nc2ccc(O)cc2)CC(c2ccco2)C1 (stereo not given),IC50,[9],9.14 µM (active)
same,IC50,[10],19.6 µM (active)
CN(C)C(=O)c1c(-c2ccccc2)oc2ccc(O)cc12,IC50,[9],46.6 µM (active)
c1ccc(COC2CCCN(Cc3nc(-c4cccs4)no3)C2)nc1 (stereo not given),IC50,[6],> 66 µM (inactive)
same,IC50,[7],> 66 µM (inactive)
O=C(Nc1cccc(F)c1)N1CC2(CCN(C(=O)Oc3ccccc3)CC2)C1,AC50,[11],12.6 µM (inconclusive)
same,AC50,[12],inconclusive
Cn1ncc2c(N3CCN(c4ccc(Cl)c(Cl)c4)CC3)ncnc21,IC50,[8],> 80 µM (inactive)
same,AC50,[13],2.55 µM (active)
COc1ccc(CCNC(=O)c2nnn(CC(=O)Nc3c(C)cc(C)cc3C)c2N)cc1OC,EC50,[14],> 350 µM (not active)
same,EC50,[15],> 350 µM (not active)
Cc1[nH]c(=O)[nH]c(=O)c1N(CCF)CCCl [FLUORODOPAN],GI50,[16],330 µM (inactive)
same,GI50,[17],249 µM (inactive)
COc1ccc(Sc2nc(-c3ccccc3)ncc2OC)cc1,EC50,[2],18.3 µM (active)
same,EC50,[3],> 120 µM (not active)
same,EC50,[4],16 µM (active)
COc1ccc(NCC(=O)N/N=C/C2CCCCC2)cc1,AC50,[5],4.57 µM (active)
Cc1ccc(C)c(-c2nc3ccc(N)cc3[nH]2)c1,IC50,[9],83.7 µM (active)
COc1cccc(N2CCN(CC(=O)NC(C)c3ccccc3)CC2)c1 (stereo not given),AC50,[5],2.02 µM (active)
CCCC(=O)Nc1nc2n(n1)C(c1ccccc1)CC(=O)N2 (stereo not given),AC50,[12],inconclusive
CCN1CCN(/C=N/c2nc3c(s2)CCCC3)CC1,EC50,[3],8.93 µM (active)
same,EC50,[18],< 0.16 µM (active)
same,EC50,[4],7.71 µM (active)
same,AC50,[19],6.42 µM (active)
CN(C)c1ccc(NS(=O)(=O)c2cccc(Cl)c2)cc1,IC50,[9],28.7 µM (active)
Nc1ncc(-c2ccccc2)c(-c2ccc(O)cc2O)n1,AC50,[5],3.66 µM (active)
Cc1ccc(N2C(=O)CC(Sc3ccccc3C(=O)O)C2=O)c([N+](=O)[O-])c1 (stereo not given),IC50,[6],> 66 µM (inactive)
same,IC50,[7],> 66 µM (inactive)
COc1cccc(/C=N/NC(=O)c2nc(-c3ccccc3)cc(-c3ccccc3)n2)c1O,EC50,[20],> 150 µM (inactive)
same,EC50,[14],12.8 µM (active)
same,EC50,[21],1.54 µM (active)
same,EC50,[15],86.6 µM (active)
COc1cccc(-n2nc(-c3ccnn3-c3ccccc3)c(=O)n(C)c2=O)c1,EC50,[2],25.3 µM (active)
same,EC50,[3],> 120 µM (not active)
same,EC50,[4],> 120 µM (not active)
Cc1ccc(NC(=O)C2CCN(S(=O)(=O)c3c(C)noc3/C=C/c3ccco3)CC2)nc1,AC50,[19],5.56 µM (active)
COc1ccc(C2=CC(c3ccc(F)cc3)n3nnnc3N2)cc1 (stereo not given),IC50,[6],> 66 µM (inactive)
same,IC50,[7],> 66 µM (inactive)
CCN(CCNC(=O)Cn1cc2c(n1)CCCC2)c1ccccc1,AC50,[5],2.46 µM (active)
COc1cc(/C=C(\C#N)c2nc3ccccc3n2C)cc(OC)c1O,IC50,[9],9.81 µM (active)
COC(=O)c1[nH]c2ccccc2c1/C=C1\C(=O)NC(=O)N(c2cc(OC)ccc2OC)C1=O,EC50,[14],> 350 µM (not active)
same,EC50,[15],73.1 µM (active)
COC(=O)C1C(=O)N2CCCSC2=C(C#N)C1c1cccs1 (stereo not given),EC50,[14],> 350 µM (not active)
same,EC50,[15],> 350 µM (not active)
COC(=O)c1cc2c(C)c(C)c3ccccn3c-2c1C(=O)OC,IC50,[22],47.9 µM (inactive)
same,IC50,[6],> 66 µM (inactive)
same,IC50,[7],> 66 µM (inactive)
CC(C)c1ccc(S(=O)(=O)Nc2ccc(O)c(Sc3nc[nH]n3)c2)cc1,AC50,[5],1.49 µM (active)
CCc1ccc(C2C(=O)c3ccccc3C2=O)cc1,EC50,[14],> 350 µM (not active)
same,EC50,[15],30.8 µM (active)
COc1ccc(S(=O)(=O)N(C)C[C@@H]2Oc3ccc(NC(=O)Nc4ccc5c(c4)OCO5)cc3C(=O)N([C@H](C)CO)C[C@@H]2C)cc1,AC50,[23],2.3 µM (active)
same,AC50,[24],3.09 µM (active)
COc1ccc(N2CCN(c3ccc(N4C(=O)CC(C)C4=O)cc3[N+](=O)[O-])CC2)cc1 (stereo not given),EC50,[14],> 350 µM (not active)
same,EC50,[15],41.1 µM (active)
